We go through ten molecules from ChEMBL document CHEMBL1201862, “PubChem BioAssay data set” (2004).

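96-well plates; 48 h exposure; 5 concentrations. Endpoints by linear interpolation between flanking doses. Not reached: highest tested concentration assigned. GI50 = concentration required for 50% inhibition of growth.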 The source made the active and inactive calls. Cut-off read from the data, not from the text of the source: active = GI50 up to about 1.1 µM and inactive = higher.

Holding throughout (assay): DTP human tumour cell line panel, 48 h
Assay [1] relates to SN12C.
For assay [2], the system named is SK-MEL-28.
Assay [3] has as its system SK-OV-3.
Assay [4] concerns MCF7.
Assay [5] has as its system UO-31.
Assay [6] deals with SF-539.
Assay [7] deals with UACC-62.
Assay [8] relates to NCI-H23.
Assay [9] has as its system CCRF-CEM.
The subject of assay [10] is Hs-578T.
For assay [11], the system named is M14.
Assay [12] deals with HCC 2998.
Assay [13] deals with OVCAR-8.
The subject of assay [14] is RXF 393.
In assay [15] the test system is K562.
Assay [16] concerns SF-268.
Assay [17] has as its system NCI-H460.
The test system of assay [18] is HOP-62.
For assay [19], the system named is MDA-N.
The test system of assay [20] is HCT-15.

Consider `CN(C)Cc1cc(C(C)(C)C)cc(CN(C)C)c1O`, for which the GI50 (usually the concentration that inhibits growth by half) in assay [1] is 73.3 µM (inactive); in [2] it was > 100 µM (inactive); in [3], > 100 µM (inactive); in assay [4], 96.2 µM (inactive); in assay [5] it was 21.3 µM (inactive); in [6], 86.7 µM (inactive). In addition, the GI50 was > 100 µM (inactive) in [7]; > 100 µM (inactive) in assay [8]; 21.4 µM (inactive) in assay [9]; > 100 µM (inactive) in [10]; > 100 µM (inactive) in assay [11]; 17.1 µM (inactive) in assay [12]. The GI50 in assay [13] was 98.4 µM (inactive); in assay [14] it was > 100 µM (inactive); in assay [15], > 100 µM (inactive); in assay [16], 79.3 µM (inactive); in assay [17], 36.4 µM (inactive); in assay [18], 68.5 µM (inactive). For the same molecule, the figures for the GI50 in [19] and in assay [20] were > 100 µM (inactive) and 30.4 µM, respectively.
As to `O=C(/C=C/c1ccco1)CC(=O)/C=C/c1ccco1`, the GI50 in [1] is 10.1 µM (inactive); in assay [2], 12.2 µM (inactive); in [3], > 10 µM (inactive); in assay [4], 8.32 µM (inactive); in [5], 13.3 µM (inactive); in [6] it was 13.9 µM (inactive). The GI50 in assay [7] was 13.5 µM (inactive); in assay [8], 12.2 µM (inactive); in [9] it was 6.17 µM (inactive); in assay [10], 16.4 µM (inactive); in assay [11] it was 14.7 µM (inactive); in assay [12], 12.8 µM (inactive). Moreover, the GI50 in assay [13] was 17.7 µM (inactive); in assay [14], 4.58 µM (inactive); in [15], 9.89 µM (inactive); in [16], > 10 µM (inactive); in assay [17], 14.4 µM (inactive); in assay [18], 11.7 µM (inactive). Moreover, the GI50 is 8.04 µM (inactive) in assay [19] and 12.5 µM in assay [20].
As for `ClCc1nn(-c2ccccc2)c(CCl)c1CCl`, the GI50 was 3.11 µM (inactive) in assay [1]; 5.32 µM (inactive) in [2]; 8.89 µM (inactive) in assay [3]; 2.38 µM (inactive) in assay [4]; 4.74 µM (inactive) in assay [5]; 2.34 µM (inactive) in assay [6]. In addition, the GI50 in [7] is 3.47 µM (inactive); in assay [8] it was 4.46 µM (inactive); in assay [9] it was 1.17 µM (inactive); in assay [10], 14.5 µM (inactive); in assay [11], 3.3 µM (inactive); in assay [12] it was 12.1 µM (inactive). Also, the GI50 in assay [13] is 2.35 µM (inactive); in assay [14], 4.82 µM (inactive); in assay [15], 2.54 µM (inactive); in assay [16] it was 3.27 µM (inactive); in [17], 2.66 µM (inactive); in assay [18], 15.8 µM (inactive). Moreover, the values for the GI50 in [19] and in assay [20] were 2.88 µM (inactive) and 3.33 µM, respectively.
Regarding `Cc1cccc2c(N)c3cccc(C(=O)NCC[N+](C)(C)Cc4c([N+](=O)[O-])ncn4C)c3nc12`, the GI50 is 6.93 µM (inactive) in assay [1]; > 100 µM (inactive) in assay [2]; 31.6 µM (inactive) in assay [3]; 12.8 µM (inactive) in assay [4]; 16.6 µM (inactive) in assay [5]; 11.5 µM (inactive) in assay [6]. The GI50 in assay [7] was 33.7 µM (inactive); in assay [8], 17.5 µM (inactive); in assay [9], 18.9 µM (inactive); in [10], 31.2 µM (inactive); in assay [11], 52.4 µM (inactive); in [12], 6.73 µM (inactive). Moreover, the GI50 is 26.3 µM (inactive) in assay [13]; 48 µM (inactive) in assay [14]; 11.1 µM (inactive) in assay [15]; 28.2 µM (inactive) in [16]; 10.4 µM (inactive) in assay [18]; 47.1 µM (inactive) in assay [19]. The molecule further gave a GI50 in assay [20] of 27 µM.
In the case of `COc1ccc(/C(Br)=C2\OC(=O)c3ccccc32)cc1`, the GI50 in assay [1], in assay [2], in assay [3], in assay [4], in assay [5] and in [6] was > 10 µM (inactive) throughout. In addition, the GI50 in assay [7], in [8], in assay [9], in assay [10], in assay [11] and in assay [12] was > 10 µM (inactive) in each case. For the same molecule, the GI50 in [13], in assay [14], in [15], in [16], in assay [17] and in [18] was > 10 µM (inactive) throughout. The results for the GI50 in assay [19] and in [20] were > 10 µM (inactive) and more than 10 µM, respectively.
For the molecule `CC(C)c1[nH]nc(C(N)=O)c1/N=N/N(C)C`, the GI50 in assay [1] was 75.3 µM (inactive); in assay [2], > 100 µM (inactive); in assay [3], 52.5 µM (inactive); in assay [4], 28.4 µM (inactive); in assay [5], 0.237 µM (active); in [6], 69.2 µM (inactive). Besides, the GI50 in assay [7] is 67.9 µM (inactive); in assay [8] it was > 100 µM (inactive); in [9], 36.6 µM (inactive); in assay [10], 54.7 µM (inactive); in [11] it was > 100 µM (inactive); in assay [12], > 100 µM (inactive). Also, the GI50 is > 100 µM (inactive) in assay [13]; 63.1 µM (inactive) in [14]; 79.8 µM (inactive) in assay [15]; 59.8 µM (inactive) in assay [16]; 42.5 µM (inactive) in assay [17]; > 100 µM (inactive) in assay [18]. The figures for the GI50 in assay [19] and in assay [20] were > 100 µM (inactive) and more than 100 µM, respectively.
In the case of `CC(=O)c1ccc2c(c1)C(=O)c1sc(C(C)=O)cc1C2=O`, the GI50 in assay [1] is 0.578 µM (active); in assay [2] it was 2.25 µM (inactive); in [3], 6.98 µM (inactive); in assay [4], 1.37 µM (inactive); in assay [5], 1.07 µM (active); in assay [6], 0.804 µM (active). Besides, the GI50 in assay [7] was 0.995 µM (active); in [8], 1.09 µM (active); in assay [9] it was 0.403 µM (active); in assay [10] it was 1.46 µM (inactive); in [11] it was 0.91 µM (active); in assay [12], 3.17 µM (inactive). The GI50 is 0.695 µM (active) in assay [13]; 1.3 µM (inactive) in [14]; 1.7 µM (inactive) in assay [15]; 1.17 µM (inactive) in [16]; 1.37 µM (inactive) in [17]; 1.73 µM (inactive) in [18]. Further, the GI50 in assay [19] is 0.796 µM (active); in assay [20] it was 0.918 µM.
Turning to `Cc1ccc2c(O)cc(-c3ccsc3)nc2n1`, the GI50 is 5.83 µM (inactive) in assay [1]; 7.23 µM (inactive) in assay [2]; 10 µM (inactive) in assay [3]; 3.08 µM (inactive) in [4]; 2.32 µM (inactive) in assay [5]; 5.93 µM (inactive) in assay [6]. Also, the GI50 in [7] is 4.61 µM (inactive); in [8], 2.77 µM (inactive); in [9], 6.18 µM (inactive); in [10] it was 3.82 µM (inactive); in [11], 3.21 µM (inactive); in assay [12] it was 5.9 µM (inactive). The GI50 in [13] was 4.06 µM (inactive); in [14], 7.53 µM (inactive); in assay [15] it was 2.9 µM (inactive); in [16], 14.4 µM (inactive); in assay [17] it was 4.01 µM (inactive); in assay [18] it was 10.8 µM (inactive). Besides, the concentration for 50% growth inhibition (GI50) in assay [19] is 0.454 µM (active); in assay [20], 1.68 µM.
As to `CO[C@H]1[C@H](O)[C@H](O[C@H]2CC[C@@]3(C)[C@H](CC[C@@H]4[C@@H]3CC[C@]3(C)[C@@H](C5=CC(=O)OC5)CC[C@]43O)C2)O[C@@H](C)[C@@H]1O` [NERIIFOLIN], the GI50 was 0.000211 µM (active) in [1]; 0.00189 µM (active) in assay [2]; 0.00108 µM (active) in assay [3]; 0.00076 µM (active) in [4]; 0.000902 µM (active) in assay [5]; 0.000569 µM (active) in [6]. Further, the GI50 in assay [7] is 0.00155 µM (active); in [8] it was 0.000394 µM (active); in assay [9] it was 0.000362 µM (active); in assay [10], < 0.0001 µM (active); in assay [11], 0.00139 µM (active); in [12] it was 0.0094 µM (active). The 50% growth inhibitory concentration (GI50) in assay [13] is 0.00108 µM (active); in [14], < 0.01 µM (active); in assay [16], 0.000444 µM (active); in assay [17], 0.0006 µM (active); in assay [18] it was 0.00027 µM (active); in assay [19], < 0.0001 µM (active). This molecule also gave a concentration for 50% growth inhibition (GI50) in assay [20] of 0.00112 µM.
Turning to `O=C1NC(=O)[C@@]2(CC[C@@H](O)C2)c2ccncc21` [SESBANINE], the GI50 in assay [1], in [2], in [3], in [4], in assay [5] and in assay [6] was > 100 µM (inactive) each time. In addition, the GI50 in [7], in assay [8], in assay [9], in assay [10], in assay [11] and in assay [12] was > 100 µM (inactive) in each case. Further, the GI50 in assay [13], in assay [14], in [15], in assay [16], in [17] and in assay [19] was > 100 µM (inactive) throughout. Besides, in [20], the GI50 was more than 100 µM.
